Target: T1, KRAS G12D (Homo sapiens, UniProt P01116, G12D)
T1 construct: made in house; host or cells: Escherichia coli BL21 (DE3), pET28a
Assay: Inhibitory activity on KRAS G12D nucleotide (GDP-GTP) exchange reaction in vitro (SOS1-dependent, BODIPY FL GDP)
Format: biochemical
Conditions: BODIPY FL GDP-bound recombinant KRAS G12D, 25° C. 1 hour preincubation, then SOS1 and GMPPNP 30 minutes at room temperature
Source text: Test Example: Evaluation of Inhibitory Activity of Compounds of Examples 1-21 on KRAS G12D Nucleotide (GDP-GTP) Exchange Reaction In Vitro
Recombinant KRAS G12D (conjugated N-terminus His6-tag, TEV protease cleavage site and KRAS G12D residues 1-169 (SEQ ID NO: 1), prepared by the method described below) and cleaved recombinant SOS1 (residues 564-1049 (SEQ ID NO: 2), prepared by the method described below) proteins were expressed in E. coli and purified by affinity chromatography.
To prepare BODIPY FL (fluorescent dye) GDP-bound KRAS G12D protein, 50 μM KRAS G12D protein was incubated with 0.5 mM BODIPY FL GDP in a loading buffer (20 mM Tris-HCl (pH 7.5), 50 mM NaCl, 1 mM DTT and 2.5 mM EDTA) for 1 hour on ice. After the incubation, MgCl2 was added to a final concentration of 10 mM, followed by incubation at room temperature for 30 minutes.
The mixture was allowed to pass through a NAP-5 column to remove free nucleotides, and purified BODIPY FL GDP-bound KRAS G12D protein was used for compound evaluation.
For the measurement of the inhibitory activity of compounds on GDP-GTP exchange rate of recombinant KRAS G12D, BODIPY FL GDP-bound KRAS G12D protein was incubated with various concentrations of compounds of Formula (I), i.e., compounds of Examples 1-21, in a reaction buffer (20 mM Tris-HCl (pH 7.5), 100 mM NaCl, 1 mM MgCl2, 2 mM DTT, 0.1% Tween 20) at 25° C. for 1 hour.
After the incubation, recombinant SOS1 and GMPPNP (guanosine-5′-[(β,γ)-imido]triphosphate, tetralithium salt) (Jena Bioscience GmbH, Jena, Germany) were added and incubated at room temperature for 30 minutes to proceed SOS1-dependent GDP-GTP exchange reaction on KRAS G12D. Replacement of BODIPY FL GDP by GMPPNP was measured by calculating the ratio of fluorescence intensities of BODIPY FL before and after the exchange reaction.
Inhibition % was calculated by setting the fluorescence ratio from the reaction without test compound (DMSO control) and the fluorescence ratio from the reaction without SOS1 and GMPPNP as 0% and 100% inhibition, respectively. IC50 values were calculated from a dose titration curve using curve fitting by XLfit software (IDBS, Boston, Massachusetts, US).

T1 sequence (P01116 with tags, fused parts or gaps isoform P01116-2 G12D): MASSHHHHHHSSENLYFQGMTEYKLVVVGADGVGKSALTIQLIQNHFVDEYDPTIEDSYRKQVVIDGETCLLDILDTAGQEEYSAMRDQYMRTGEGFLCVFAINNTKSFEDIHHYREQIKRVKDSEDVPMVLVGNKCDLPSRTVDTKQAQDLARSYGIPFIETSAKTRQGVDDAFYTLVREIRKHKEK

IC50 [µM] | SMILES
43.7 | C[C@@H]1NC[C@H]1N(C)C(=O)c1c(Cl)nc(CNc2n[nH]c3cc(Cl)c(C(C)(C)C)cc23)n1C (relative stereo) [Example 11]
17.1 | C[C@H]1CNC[C@@H]1N(C)C(=O)c1c(Cl)nc(CNc2n[nH]c3cc(Cl)c(C(C)(C)C)cc23)n1C (relative stereo) [Example 13, 2-(((5-(tert-butyl)-6-chloro-1H-indazol-3-yl)amino)methyl)-4-chloro-N,1-dimethyl-N-(trans-4-methylpyrrolidin-3-yl)-1H-imidazole-5-carboxamide]
43.1 | C[C@@H]1CNC[C@@H]1N(C)C(=O)c1c(Cl)nc(CNc2n[nH]c3cc(Cl)c(C(C)(C)C)cc23)n1C (relative stereo) [Example 14, 2-(((5-(tert-butyl)-6-chloro-1H-indazol-3-yl)amino)methyl)-4-chloro-N,1-dimethyl-N-(cis-4-methylpyrrolidin-3-yl)-1H-imidazole-5-carboxamide]
20.7 | CN(C(=O)c1c(Cl)nc(CNc2n[nH]c3cc(Cl)c(C(C)(C)C)cc23)n1C)C1CNC1 [Example 1, N-(azetidin-3-yl)-2-(((5-(tert-butyl)-6-chloro-1H-indazol-3-yl)amino)methyl)-4-chloro-N,1-dimethyl-1H-imidazole-5-carboxamide]
12.4 | CN(C(=O)c1c(Cl)nc(CNc2n[nH]c3cc(Cl)c(C(C)(C)C)cc23)n1C)[C@H]1CCNC1 [Example 2, (S)-2-(((5-(tert-butyl)-6-chloro-1H-indazol-3-yl)amino)methyl)-4-chloro-N,1-dimethyl-N-(pyrrolidin-3-yl)-1H-imidazole-5-carboxamide]
18.7 | CN(C(=O)c1c(Cl)nc(CNc2n[nH]c3cc(Cl)c(C(C)(C)C)cc23)n1C)[C@@H]1CCNC1 [Example 3, (R)-2-(((5-(tert-butyl)-6-chloro-1H-indazol-3-yl)amino)methyl)-4-chloro-N,1-dimethyl-N-(pyrrolidin-3-yl)-1H-imidazole-5-carboxamide]
38 | Cn1c(CNc2n[nH]c3cc(Cl)c(C(C)(C)C)cc23)nc(Cl)c1C(=O)N1CCCNCC1 [Example 4, (2-(((5-(tert-butyl)-6-chloro-1H-indazol-3-yl)amino)methyl)-4-chloro-1-methyl-1H-imidazol-5-yl)(1,4-diazepan-1-yl)methanone]
1.3 | CC(C)N1CC[C@@H](n2c(CNc3n[nH]c4cc(Cl)c(C(C)(C)C)cc34)nc(Cl)c2C(=O)N(C)[C@@H]2CCNC2)C1 [Example 5, 2-(((5-(tert-butyl)-6-chloro-1H-indazol-3-yl)amino)methyl)-4-chloro-1-((R)-1-isopropylpyrrolidin-3-yl)-N-methyl-N-((R)-pyrrolidin-3-yl)-1H-imidazole-5-carboxamide]
3.8 | CC(C)N1CC[C@@H](n2c(CNc3n[nH]c4cc(Cl)c(C(C)(C)C)cc34)nc(Cl)c2C(=O)N(C)C2CNC2)C1 [Example 6, (R)-N-(azetidin-3-yl)-2-(((5-(tert-butyl)-6-chloro-1H-indazol-3-yl)amino)methyl)-4-chloro-1-(1-isopropylpyrrolidin-3-yl)-N-methyl-1H-imidazole-5-carboxamide]
43.5 | CN(CCN)C(=O)c1c(Cl)nc(CNc2n[nH]c3cc(Cl)c(C(C)(C)C)cc23)n1C [Example 7, N-(2-aminoethyl)-2-(((5-(tert-butyl)-6-chloro-1H-indazol-3-yl)amino)methyl)-4-chloro-N,1-dimethyl-1H-imidazole-5-carboxamide]
35.3 | CC(C)N1CC[C@@H](n2c(CNc3n[nH]c4cc(Cl)c(C(C)(C)C)cc34)nc(Cl)c2C(=O)N(C)CCN)C1 [Example 8, (R)-N-(2-aminoethyl)-2-(((5-(tert-butyl)-6-chloro-1H-indazol-3-yl)amino)methyl)-4-chloro-1-(1-isopropylpyrrolidin-3-yl)-N-methyl-1H-imidazole-5-carboxamide]
33.5 | CC[C@@H]1CNC[C@@H]1N(C)C(=O)c1c(Cl)nc(CNc2n[nH]c3cc(Cl)c(C(C)(C)C)cc23)n1C [Example 9, 2-(((5-(tert-butyl)-6-chloro-1H-indazol-3-yl)amino)methyl)-4-chloro-N-((3R,4R)-4-ethylpyrrolidin-3-yl)-N,1-dimethyl-1H-imidazole-5-carboxamide]
46.9 | CN(C(=O)c1c(Cl)nc(CNc2n[nH]c3cc(Cl)c(C(C)(C)C)cc23)n1C)[C@@H]1CNCC12CC2 [Example 10, (S)-2-(((5-(tert-butyl)-6-chloro-1H-indazol-3-yl)amino)methyl)-4-chloro-N,1-dimethyl-N-(5-azaspiro[2.4]heptan-7-yl)-1H-imidazole-5-carboxamide]
38.2 | CN[C@H]1C[C@@H]1N(C)C(=O)c1c(Cl)nc(CNc2n[nH]c3cc(Cl)c(C(C)(C)C)cc23)n1C [Example 12, 2-(((5-(tert-butyl)-6-chloro-1H-indazol-3-yl)amino)methyl)-4-chloro-N,1-dimethyl-N-((1S,2S)-2-(methylamino)cyclopropyl)-1H-imidazole-5-carboxamide]
32.9 | CN(C(=O)c1c(Cl)nc(CNc2cc(C(C)(C)C)c(Cl)cc2O)n1C)[C@@H]1CCNC1 [Example 15, (R)-2-(((5-(tert-butyl)-4-chloro-2-hydroxyphenyl)amino)methyl)-4-chloro-N,1-dimethyl-N-(pyrrolidin-3-yl)-1H-imidazole-5-carboxamide]
26.2 | CN(C(=O)c1c(Cl)nc(CNc2cc(C(C)(C)C)c(Cl)cc2O)n1C)[C@H]1CCNC1 [Example 16, (S)-2-(((5-(tert-butyl)-4-chloro-2-hydroxyphenyl)amino)methyl)-4-chloro-N,1-dimethyl-N-(pyrrolidin-3-yl)-1H-imidazole-5-carboxamide]
12 | CN(C(=O)c1c(Cl)nc(CNc2cc(C(C)(C)C)c(Cl)cc2O)n1C)C1CNC1 [Example 17, N-(azetidin-3-yl)-2-(((5-(tert-butyl)-4-chloro-2-hydroxyphenyl)amino)methyl)-4-chloro-N,1-dimethyl-1H-imidazole-5-carboxamide]
1.6 | CC(C)N1CC[C@@H](n2c(CNc3cc(C(C)(C)C)c(Cl)cc3O)nc(Cl)c2C(=O)N(C)[C@@H]2CCNC2)C1 [Example 18, 2-(((5-(tert-butyl)-4-chloro-2-hydroxyphenyl)amino)methyl)-4-chloro-1-((R)-1-isopropylpyrrolidin-3-yl)-N-methyl-N-((R)-pyrrolidin-3-yl)-1H-imidazole-5-carboxamide]
3.7 | CC(C)N1CC[C@@H](n2c(CNc3cc(C(C)(C)C)c(Cl)cc3O)nc(Cl)c2C(=O)N(C)[C@H]2CCNC2)C1 [Example 19, 2-(((5-(tert-butyl)-4-chloro-2-hydroxyphenyl)amino)methyl)-4-chloro-1-((R)-1-isopropylpyrrolidin-3-yl)-N-methyl-N-((S)-pyrrolidin-3-yl)-1H-imidazole-5-carboxamide]
3.2 | CC(C)N1CC[C@@H](n2c(CNc3cc(C(C)(C)C)c(Cl)cc3O)nc(Cl)c2C(=O)N(C)C2CNC2)C1 [Example 20, (R)-N-(azetidin-3-yl)-2-(((5-(tert-butyl)-4-chloro-2-hydroxyphenyl)amino)methyl)-4-chloro-1-(1-isopropylpyrrolidin-3-yl)-N-methyl-1H-imidazole-5-carboxamide]
31.5 | CN(C(=O)c1c(Cl)nc(CNc2n[nH]c3cc(Cl)c(C(C)(C)C)cc23)n1C)C1CCNC1 (stereo not drawn) [Example 21, 2-(((5-(tert-butyl)-6-chloro-1H-indazol-3-yl)amino)methyl)-4-chloro-N,1-dimethyl-N-(pyrrolidin-3-yl)-1H-imidazole-5-carboxamide]

Reference: patent publication US12643885B2, “KRAS G12D protein inhibitors” (TAIHO PHARMACEUTICAL CO., LTD., priority 2020, dated 2026)
